Test results reported in US20070219144A1, “IMMUNOMODULATORY SACCHARIDE COMPOUNDS” (University of Alberta, priority 2006, published 2007).
“Also recorded” adds a separate entry of the source.

What was measured:
Format in all cases: cell-based, human
TNF-α [1] = assay: Inhibition of IFN-γ/SAC-induced TNF-α production in THP-1 cells after pre-incubation (ELISA); details: for inhibition of TNF-α production induced by IFN-γ/SAC / induction of TNF-α production in the IFN-γ/SAC assay: 5 μM, FIG. 12; for inhibition of TNF-α response induced by IFN-γ/SAC: FIG. 11A; for inhibition of the cytokine response (TNF-α) induced by IFN-γ/SAC: general statement, no concentration given
IL-12p70 [2] = assay: IL-12p70 induction in THP-1 cells by compound alone (ELISA); details: 10 or 100 μg/mL
Experimental: (§1) Experiments were conducted to determine the role for the MTX residue. Given its location in the capping motif in LAM from M. tuberculosis, it was hypothesized that the residue may function as an immunomodulatory species. Thus, the ability of 3 and 34 to induce or inhibit the production of the TNF-α and IL-12p70 was evaluated using a human monocytic cell line (THP-1). THP-1 cells were re-suspended at a concentration of 5×10^6 cells/mL in RPMI 1640+10% FCS+1% GPS (200 mM penicillin/streptomycin (Sigma UK)+2 mM L-glutamine (Invitrogen)) and plated into a 48-well plate (500 μL/well). Cells were treated with either 3 or 34 (100 μg and 10 μg/mL) or AraLAM or ManLAM (10 μg/mL) for 24 hours and then stimulated for a further 8 hours with a combination of Staphylococcus aureus Cowan (SAC) (Pansorbin™, Calbiochem, UK) and human IFNγ (1000 U/mL, Preprotech). Following incubation, the supernatants were collected and stored in 200 μL aliquots (−80° C.) and analyzed by ELISA (R&D systems) for IL12p70 and TNF-α production.

IL-12p70 [3] = assay: Inhibition of IFN-γ/SAC-induced IL-12p70 production in THP-1 cells after pre-incubation (ELISA); details: for inhibition of IL-12p70 production induced by IFN-γ/SAC: 5 μM, FIG. 13; for inhibition of IL-12p70 response induced by IFN-γ/SAC: 10 or 100 μg/mL, FIG. 11B; for inhibition of the cytokine response (IL-12p70) induced by IFN-γ/SAC: general statement, no concentration given
TNF-α [4] = assay: TNF-α induction in THP-1 cells by compound alone (ELISA); details: 10 or 100 μg/mL
Experimental: as §1

| Compound | inhibition of TNF-α production induced by IFN-γ/SAC (TNF-α [1]) | inhibition of TNF-α response induced by IFN-γ/SAC (TNF-α [1]; 10 μg/mL) | inhibition of the cytokine response (TNF-α) induced by IFN-γ/SAC (TNF-α [1]) | induction of IL-12p70 production (IL-12p70 [2]) | inhibition of IL-12p70 production induced by IFN-γ/SAC (IL-12p70 [3]) | inhibition of IL-12p70 response induced by IFN-γ/SAC (IL-12p70 [3]) | inhibition of the cytokine response (IL-12p70) induced by IFN-γ/SAC (IL-12p70 [3]) | induction of TNF-α production (TNF-α [4]) | induction of TNF-α production in the IFN-γ/SAC assay (TNF-α [1]) | inhibition of TNF-α response induced by IFN-γ/SAC (TNF-α [1]; 100 μg/mL) |
| --- | --- | --- | --- | --- | --- | --- | --- | --- | --- | --- |
| CO[C@H]1OC(CO)[C@@H](O[C@H]2O[C@H](C[S+](C)[O-])C(O)[C@@H]2O)[C@H](O)C1O (mixture of isomers) [Compound 34] | weaker inhibitor than 3 | less effective and comparable to AraLAM at 10 μg/mL | modest levels of inhibition; also recorded: modest inhibitory properties | Neither 3 nor 34, when tested at concentrations of 10 or 100 μg/mL, significantly induced the production of these two cytokines; also recorded: did not lead to production | less active | only a very modest effect | modest levels of inhibition; also recorded: modest inhibitory properties | Neither 3 nor 34, when tested at concentrations of 10 or 100 μg/mL, significantly induced the production of these two cytokines; also recorded: did not lead to production |  |  |
| CO[C@H]1O[C@H](CO)[C@@H](O)[C@H](O)[C@@H]1O[C@H]1O[C@H](CSC)[C@H](O)[C@H]1O [Compound 1, Methyl 2-O-(5-deoxy-5-methylthio-α-D-xylofuranosyl)-α-D-mannopyranoside] | none of these compounds inhibited cytokine induction |  |  |  | inhibited induction, but to a degree intermediate between 3 and 34 |  |  |  | appeared to induce production of TNF-α to varying degrees |  |
| CO[C@H]1O[C@H](CO)[C@@H](O)[C@H](O[C@H]2O[C@H](CSC)[C@H](O)[C@H]2O)[C@@H]1O [Compound 2, Methyl 3-O-(5-deoxy-5-methylthio-α-D-xylofuranosyl)-α-D-mannopyranoside] | none of these compounds inhibited cytokine induction |  |  |  | inhibited induction, but to a degree intermediate between 3 and 34 |  |  |  | appeared to induce production of TNF-α to varying degrees |  |
| CO[C@H]1O[C@H](CO)[C@@H](O[C@H]2O[C@H](CSC)[C@H](O)[C@H]2O)[C@H](O)[C@@H]1O [Compound 3, Methyl 4-O-(5-deoxy-5-methylthio-α-D-xylofuranosyl)-α-D-mannopyranoside] | inhibited TNF-α production to a similar degree as a 5 μM concentration of ManLAM |  | modest levels of inhibition; also recorded: modest inhibitory properties | Neither 3 nor 34, when tested at concentrations of 10 or 100 μg/mL, significantly induced the production of these two cytokines; also recorded: did not lead to production |  | only a very modest effect | modest levels of inhibition; also recorded: modest inhibitory properties | Neither 3 nor 34, when tested at concentrations of 10 or 100 μg/mL, significantly induced the production of these two cytokines; also recorded: did not lead to production |  | level of inhibition comparable with ManLAM at 10 μg/mL |
| CO[C@H]1O[C@H](CO)[C@@H](O[C@@H]2O[C@@H](CSC)[C@@H](O)[C@@H]2O)[C@H](O)[C@@H]1O [Compound 6, Methyl 4-O-(5-deoxy-5-methylthio-α-L-xylofuranosyl)-α-D-mannopyranoside] | none of these compounds inhibited cytokine induction |  |  |  | inhibited induction, but to a degree intermediate between 3 and 34 |  |  |  | appeared to induce production of TNF-α to varying degrees |  |
| CO[C@H]1O[C@H](CO)[C@H](O)[C@H]1O [Compound 35, methyl α-D-xylofuranoside, reference compound] | none of these compounds inhibited cytokine induction |  |  |  | inhibited induction, but to a degree intermediate between 3 and 34 |  |  |  | appeared to induce production of TNF-α to varying degrees |  |
